Data set [1] concerns the target T1, synthetic red click beetle luciferase RD (RDver5.2; YG#81-6G01 variant A224H/S247H/N346I/H348Q/R351G), SEQ ID NO: 222 (Pyrophorus plagiophthalamus, UniProt Q718C1).
T1 construct: C-terminal tail changed
In words: Km determination with partially purified enzyme (Table 3), RD. In kind it is biochemical. An excerpt: (§1) The parent click beetle luciferase YG#81-6G1 (“YG”), and the synthetic click beetle luciferase genes GRver5.1 (“GR”), RDver5.2 (“RD”), and RD156-1H9 were cloned into the four pGL3 reporter vectors (Promega Corp.): • pGL3-Basic=no promoter, no enhancer • pGL3-Control=SV40 promoter, SV40 enhancer • pGL3-Enhancer=SV40 enhancer (3′ to luciferase coding sequences) • pGL3-Promoter=SV40 promoter. The primers employed in the assembly of GR and RD synthetic genes facilitated the cloning of those genes into pRAM vectors. To introduce the genes into pGL3 vectors (Promega Corp., Madison, Wis.) for analysis in mammalian cells, each gene in a pRAM vector (pRAM RDver5.1, pRAM GRver5.1, and pRAM RD156-1H9) was amplified to introduce an Nco I site at the 5′ end and an Xba I site at the 3′ end of the gene. The primers for pRAM RDver5.1 and pRAM GRver5.1 were: […]
(§2) Partially purified enzymes expressed from the synthetic genes and the parent gene were employed to determine Km for luciferin and ATP (see Table 3).

The test system of data set [2] is click beetle luciferase YG#81-6G01 (mutant of wild type LucPplYG, SEQ ID NO: 23), SEQ ID NO: 24. The note with it: vs wild type LucPplYG; cited from earlier work.
The test system of another data set is MCF-7 cells. In words: TPA induction of Renilla luciferase co-reporter vectors in transfected MCF-7 cells (Table 13). The format is cell-based. The note with it: Homo sapiens, MCF7, 24 h, 0.2 nM TPA, vs untreated. On the procedure:
Experimental treatment sometimes may activate cryptic sites within the gene and cause induction or suppression of the co-reporter expression, which would compromise its function as co-reporter for normalization of transfection efficiencies. One example is that TPA induces expression of co-reporter vectors harboring the wild-type gene when transfecting MCF-7 cells. 500 ng pRL-TK (native), 5 μg native and synthetic pRG-B, 2.5 μg native and synthetic pRG-TK were transfected per well of MCF-7 cells. 100 ng/well pGL3-control (firefly luc+) was co-transfected with all RL plasmids. Carrier DNA, pUC19, was used to bring the total DNA transfected to 5.1 μg/well. 15.3 μl TransFast Transfection Reagent (Promega Corp., Madison, Wis.) was added per well. Sixteen hours later, cells were trypsinized, pooled and split into six wells of a 6-well dish and allowed to attach to the well for 8 hours. Three wells were then treated with the 0.2 nM of the tumor promoter, TPA (phorbol-12-myristate-13-acetate, Calbiochem #524400-S), and three wells were mock treated with 20 μl DMSO. Cells were harvested with 0.4 ml Passive Lysis Buffer 24 hours post TPA addition.

Data set [3] addresses T2, click beetle luciferase RDver5.2 variant RD156-0B4 (Pyrophorus plagiophthalamus, UniProt Q718C1, A224Y/A287S/C127T/C60V/F45V, form not given/H348Q/I288V/I91V/K85T/L262F/N249T/N346I/S247H/V325A/V389I/Y183F).
T2 construct: lysate of bacterial cells
As to the kind of experiment: Km for luciferin, lysates of bacterial cells (Table 6), RD156-0B4. The format is biochemical. The note with it: read-out: Km Luciferin, CCLR lysate diluted 1:10, HEPES pH 7.8. The protocol: (§3) Protocols and procedures used for the directed evolution are detailed in see PCT/WO9914336. DNA from the four clones with lower Km was combined and three libraries of random mutants were produced. The libraries were screened with the robot and clones with the highest LI values were selected. These clones were shuffled together and another robotic screen was completed with an incubation temperature of 46° C. The three clones with the highest LI values were RD156-0B4, RD156-1A5, and RD156-1H9.
(§4) The Km values for luciferin and the luminescence intensity relative to RDver5.2 were determined for all three clones in several independent experiments. All cells samples were processed with CCLR lysis buffer (E1483, Promega Corp., Madison, Wis.) and diluted 1:10 into buffer (25 mM HEPES pH 7.8, 5% glycerol, 1 mg/ml BSA, 150 mM NaCl). Table 7 summarizes the results (Lum: luminescence values were normalized to optical density; measurements for independent experiments are separated by forward slashes) from expression in bacterial cells. RD156-1H9, the clone with the highest luminescence intensity (5 to 10-fold increase) also has an about 2-fold higher Km for luciferin.

In data set [4] the target is T3, click beetle luciferase RDver5.2 variant RD156-1A5 (Pyrophorus plagiophthalamus, UniProt Q718C1, A224Y/A287S/C127T/C60V/F45V, form not given/H348Q/I288V/I91V/K85T/L262F/N249T/N346I/S247H/V325A/V389I/Y183F).
T3 construct: lysate of bacterial cells
In words: Km for luciferin, lysates of bacterial cells (Table 6), RD156-1A5. The format is biochemical. The note with it: read-out: Km Luciferin, CCLR lysate diluted 1:10, HEPES pH 7.8. On the procedure:
as §3, §4

In data set [5] the target is T4, click beetle luciferase RDver5.2 variant RD156-1H9 (M2I/S349T/K488T/E538V), SEQ ID NO: 223 (Pyrophorus plagiophthalamus, UniProt Q718C1).
T4 construct: C-terminal tail changed; lysate of bacterial cells
The format is biochemical. As to conditions: for Km: read-out: Km Luciferin, CCLR lysate diluted 1:10, HEPES pH 7.8. On the procedure: Protocols and procedures used for the directed evolution are detailed in see PCT/WO9914336. […] The libraries were screened with the robot and clones with the highest LI values were selected. These clones were shuffled together and another robotic screen was completed with an incubation temperature of 46° C.
The Km values for luciferin and the luminescence intensity relative to RDver5.2 were determined for all three clones in several independent experiments. All cells samples were processed with CCLR lysis buffer (E1483, Promega Corp., Madison, Wis.) and diluted 1:10 into buffer (25 mM HEPES pH 7.8, 5% glycerol, 1 mg/ml BSA, 150 mM NaCl). Table 7 summarizes the results (Lum: luminescence values were normalized to optical density; measurements for independent experiments are separated by forward slashes) from expression in bacterial cells.

Data set [6] addresses T5, synthetic red click beetle luciferase RDver5.2 (YG#81-6G01 variant A224H/S247H/N346I/H348Q/R351G), SEQ ID NO: 222 (Pyrophorus plagiophthalamus, UniProt Q718C1).
T5 construct: C-terminal tail changed; lysate of bacterial cells
As to the kind of experiment: Km for luciferin, lysates of bacterial cells (Table 6), RDver5.2. The format is biochemical. The note with it: read-out: Km Luciferin, CCLR lysate diluted 1:10, HEPES pH 7.8. The protocol:
as §4

Substrate in data set [7]: Nc1ncnc2c1ncn2[C@@H]1O[C@H](COP(=O)(O)OP(=O)(O)OP(=O)(O)O)[C@@H](O)[C@H]1O
In words: Km determination with partially purified enzyme (Table 3), YG parent. In kind it is biochemical, Pyrophorus plagiophthalamus. As to conditions: other: partially purified enzyme.
Description: as §2

Substrate in data set [8]: O=C(O)[C@H]1CSC(c2nc3ccc(O)cc3s2)=N1
Described as above. The format is biochemical, Pyrophorus plagiophthalamus. As to conditions: other: partially purified enzyme.
Description: as §2

Substrate in data set [9]: Nc1ncnc2c1ncn2[C@@H]1O[C@H](COP(=O)(O)OP(=O)(O)OP(=O)(O)O)[C@@H](O)[C@H]1O
In words: Km determination with partially purified enzyme (Table 3), GR. In kind it is biochemical, Pyrophorus plagiophthalamus. As to conditions: other: partially purified enzyme.
Description: as §1, §2

Substrate in data set [10]: O=C(O)[C@H]1CSC(c2nc3ccc(O)cc3s2)=N1
The description is as above. In kind it is biochemical, Pyrophorus plagiophthalamus. The note with it: other: partially purified enzyme.
Description: as §1, §2

Substrate in data set [11]: O=C(O)[C@H]1CSC(c2nc3ccc(O)cc3s2)=N1
As to the kind of experiment: Km for luciferin, lysates of bacterial cells (Table 6), GRver5.1. In kind it is biochemical, Pyrophorus plagiophthalamus. On the procedure:
as §4

Residue numbers refer to the chain shown, from its start. Names may count otherwise. Read-outs that look alike come from different tables or passages of the source.

T5 sequence (Q718C1 entry or part of it, stated change not applied): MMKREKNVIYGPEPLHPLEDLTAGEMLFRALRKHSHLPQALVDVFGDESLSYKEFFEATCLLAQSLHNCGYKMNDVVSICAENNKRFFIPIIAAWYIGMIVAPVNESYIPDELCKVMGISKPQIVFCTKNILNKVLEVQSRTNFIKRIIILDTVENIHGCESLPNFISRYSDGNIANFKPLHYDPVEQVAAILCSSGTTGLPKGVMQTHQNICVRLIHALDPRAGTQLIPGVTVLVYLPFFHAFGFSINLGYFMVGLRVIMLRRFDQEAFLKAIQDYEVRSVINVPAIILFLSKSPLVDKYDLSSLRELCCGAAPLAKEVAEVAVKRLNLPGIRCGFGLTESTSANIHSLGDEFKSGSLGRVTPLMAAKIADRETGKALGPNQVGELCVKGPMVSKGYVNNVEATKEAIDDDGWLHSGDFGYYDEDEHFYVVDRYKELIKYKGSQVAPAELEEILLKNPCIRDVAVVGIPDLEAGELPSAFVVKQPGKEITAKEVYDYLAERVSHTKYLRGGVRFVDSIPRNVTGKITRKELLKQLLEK
T4 sequence (Q718C1 entry or part of it, stated change not applied): as above
T1 sequence (Q718C1 entry or part of it, stated change not applied): as above

Consider `Nc1ncnc2c1ncn2[C@@H]1O[C@H](COP(=O)(O)OP(=O)(O)OP(=O)(O)O)[C@@H](O)[C@H]1O` [ATP], for which, in data set [1] (read-out: KM (ATP)), the Km was determined as 46 µM. In data set [2], the “KM for ATP compared to the wild type” value is “lower”.
As a reminder, the fold induction is the signal under treatment as a multiple of the control signal. Turning to `CCCCCCCCCCCCCC(=O)O[C@@H]1[C@@H](C)[C@@]2(O)[C@@H](C=C(CO)C[C@]3(O)C(=O)C(C)=C[C@@H]23)[C@@H]2C(C)(C)[C@]12OC(C)=O` [TPA, phorbol-12-myristate-13-acetate], the fold induction in the data set with MCF-7 cells (pRG-B (final, synthetic Renilla gene)) turned out to be 1.47; with MCF-7 cells (pRG-B (native Renilla gene)), 8; in the data set on MCF-7 cells (pRG-tk (final, synthetic Renilla gene)), 0.88; in the data set on MCF-7 cells (pRG-tk (native Renilla gene)), 4.36; in the data set with MCF-7 cells (pRL-tk (native Renilla gene)) it was 4.4.
`O=C(O)[C@H]1CSC(c2nc3ccc(O)cc3s2)=N1` [luciferin]: the Km in [1] (read-out: KM (LH2)) was 24.5 µM; in data set [3] (independent experiment 1), 8 µM; in data set [3] (independent experiment 2) it was 10 µM; in [4] (independent experiment 1) it was 13 µM; in [4] (independent experiment 2), 13 µM; in [5] (independent experiment 1) it was 20 µM. Also, the Km is 23 µM in data set [5] (independent experiment 2); 23 µM in data set [5] (independent experiment 3); 12 µM in data set [6] (prep #1, independent experiment 1); 14 µM in [6] (prep #1, independent experiment 2); 14 µM in data set [6] (prep #1, independent experiment 3); 40 µM in [6] (prep #2, independent experiment 1). The Km in [6] (prep #2, independent experiment 2) was 50 µM. Moreover, the “luciferin K, fold higher” value in [5] (relative to GRver5.1) was “approximately 40 fold”. In addition, in data set [5] (relative to RDver5.2), the “Km for luciferin, fold higher” value was “about 2 fold”. The “KM for luciferin compared to the wild type” value in [2] is recorded as “lower”.

B1: click beetle (Pyrophorus plagiophthalamus) luciferase YG#81-6G01 (YG parent, mutant of wild type LucPplYG), SEQ ID NO: 24 (Pyrophorus plagiophthalamus; … (protein)
chain: MMKREKNVIYGPEPLHPLEDLTAGEMLFRALRKHSHLPQALVDVVGDESLSYKEFFEATVLLAQSLHNCGYKMNDVVSICAENNTRFFIPVIAAWYIGMIVAPVNESYIPDELCKVMGISKPQIVFTTKNILNKVLEVQSRTNFIKRIIILDTVENIHGCESLPNFISRYSDGNIANFKPLHFDPVEQVAAILCSSGTTGLPKGVMQTHQNICVRLIHALDPRAGTQLIPGVTVLVYLPFFHAFGFSITLGYFMVGLRVIMFRRFDQEAFLKAIQDYEVRSVINVPSVILFLSKSPLVDKYDLSSLRELCCGAAPLAKEVAEVAAKRLNLPGIRCGFGLTESTSANIHSLRDEFKSGSLGRVTPLMAAKIADRETGKALGPNQVGELCIKGPMVSKGYVNNVEATKEAIDDDGWLHSGDFGYYDEDEHFYVVDRYKELIKYKGSQVAPAELEEILLKNPCIRDVAVVGIPDLEAGELPSAFVVKQPGKEITAKEVYDYLAERVSHTKYLRGGVRFVDSIPRNVTGKITRKELLKQLLEKAGG
notes: wild-type residues 540-543 replaced by 3 other residues
On to B1, for which the Km in data set [7] is reported as 17 μM μM; in data set [8], 2 μM μM.

B2: synthetic green click beetle luciferase GR (GRver5.1; YG#81-6G01 variant A224V), SEQ ID NO: 31 (Pyrophorus plagiophthalamus; … (protein)
chain: B1 chain with A224V
notes: C-terminal tail changed
As to B2, the figures for the Km in data set [9] and in data set [10] were 25 μM μM and 1.3 μM μM, respectively.

B3: synthetic green click beetle luciferase GRver5.1 (YG#81-6G01 variant A224V), SEQ ID NO: 31 (Pyrophorus plagiophthalamus; … (protein)
chain: B1 chain with A224V
notes: C-terminal tail changed; lysate of bacterial cells
In the case of B3, the Km in data set [11] (other: prep #1, CCLR lysate diluted 1:10, HEPES pH 7.8) was determined as 0.5 µM; in [11] (other: prep #2, CCLR lysate diluted 1:10, HEPES pH 7.8) it was 3 µM.

(Values after patent publication US7906282B2, “Synthetic nucleic acid molecule compositions and methods of preparation” (Promega Corporation, priority 2000, dated 2011).)
